Laboratory results as given in BindingDB's records for PubMed 9454810 (Sanofi Recherche, 1998).

Assays:
[1] = target: Muscarinic acetylcholine receptor M4 (Homo sapiens, UniProt P08173)
[2] = target: Beta-2 adrenergic receptor (Homo sapiens, UniProt P07550)
[3] = target: 5-hydroxytryptamine receptor 3A (Homo sapiens, UniProt P46098)
Adenosine receptor A1 = Adenosine receptor A1 (Homo sapiens, UniProt P30542)
[4] = target: AP-4 complex subunit sigma-1 (Homo sapiens, UniProt Q9Y587)
Histamine H3 receptor = Histamine H3 receptor (Homo sapiens, UniProt Q9Y5N1)
[5] = target: Neuropeptide Y receptor type 2 (Homo sapiens, UniProt P49146)
Histamine H1 receptor = Histamine H1 receptor (Homo sapiens, UniProt P35367)
Substance-K receptor = Substance-K receptor (Homo sapiens, UniProt P21452)
Galanin peptides = Galanin peptides (Homo sapiens, UniProt P22466)
Histamine H2 receptor = Histamine H2 receptor (Homo sapiens, UniProt P25021)
[6] = target: Potassium voltage-gated channel subfamily A member 1 (Homo sapiens, UniProt Q09470)
[7] = target: Type-1 angiotensin II receptor (Homo sapiens, UniProt P30556)
[8] = target: 5-hydroxytryptamine receptor 1B (Homo sapiens, UniProt P28222)
Vasopressin V1b receptor = Vasopressin V1b receptor (Homo sapiens, UniProt P47901)
[9] = target: Gamma-aminobutyric acid receptor subunit alpha-1 (Homo sapiens, UniProt P14867)
P2Y purinoceptor 1 = P2Y purinoceptor 1 (Homo sapiens, UniProt P47900)
[10] = target: Alpha-1A adrenergic receptor (Homo sapiens, UniProt P35348)
Neurotensin/neuromedin N = Neurotensin/neuromedin N (Human, UniProt P30990)
B2 bradykinin receptor = B2 bradykinin receptor (Homo sapiens, UniProt P30411)
P2X purinoceptor 1 = P2X purinoceptor 1 (Homo sapiens, UniProt P51575)
[11] = target: Neuronal acetylcholine receptor subunit alpha-3 (Homo sapiens, UniProt P32297)
[12] = target: Leukotriene B4 receptor 2 (Homo sapiens, UniProt Q9NPC1)
Adenosine receptor A2a = Adenosine receptor A2a (Homo sapiens, UniProt P29274)
[13] = target: Protein kinase C alpha type (Homo sapiens, UniProt P17252)
VIP peptides = VIP peptides (Homo sapiens, UniProt P01282)
[14] = target: Endothelin receptor type B (Homo sapiens, UniProt P24530)
[15] = target: 5-hydroxytryptamine receptor 2C (Homo sapiens, UniProt P28335)
[16] = target: 5-hydroxytryptamine receptor 1D (Homo sapiens, UniProt P28221)
Substance-P receptor = Substance-P receptor (Homo sapiens, UniProt P25103)
Vasopressin V2 receptor = Vasopressin V2 receptor (Homo sapiens, UniProt P30518)
[17] = target: Muscarinic acetylcholine receptor M1 (Homo sapiens, UniProt P11229)
D(1A) dopamine receptor = D(1A) dopamine receptor (Homo sapiens, UniProt P21728)
[18] = target: Muscarinic acetylcholine receptor M2 (Homo sapiens, UniProt P08172)
Thromboxane A2 receptor = Thromboxane A2 receptor (Homo sapiens, UniProt P21731)
[19] = target: Calcium-activated potassium channel subunit beta-1 (Homo sapiens, UniProt Q16558)
[20] = target: Voltage-dependent N-type calcium channel subunit alpha-1B (Homo sapiens, UniProt Q00975)
[21] = target: Pro-thyrotropin-releasing hormone (Homo sapiens, UniProt P20396)
[22] = target: Peripheral-type benzodiazepine receptor-associated protein 1 (Homo sapiens, UniProt O95153)
[23] = target: Gastrin/cholecystokinin type B receptor (Homo sapiens, UniProt P32239)

Measured: Ki

Chain of 5-hydroxytryptamine receptor 1B (P28222 whole entry): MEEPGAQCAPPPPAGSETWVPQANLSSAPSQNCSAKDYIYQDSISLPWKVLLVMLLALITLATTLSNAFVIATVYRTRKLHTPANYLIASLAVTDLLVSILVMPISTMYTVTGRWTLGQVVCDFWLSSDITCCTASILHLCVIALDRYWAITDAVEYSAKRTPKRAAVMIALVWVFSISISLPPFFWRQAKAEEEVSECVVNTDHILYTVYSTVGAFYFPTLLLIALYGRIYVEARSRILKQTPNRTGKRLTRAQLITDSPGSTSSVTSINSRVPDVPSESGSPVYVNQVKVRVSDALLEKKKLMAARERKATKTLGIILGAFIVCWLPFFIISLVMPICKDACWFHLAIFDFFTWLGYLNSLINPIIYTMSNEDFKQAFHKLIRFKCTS
Chain of Neuronal acetylcholine receptor subunit alpha-3 (P32297 whole entry): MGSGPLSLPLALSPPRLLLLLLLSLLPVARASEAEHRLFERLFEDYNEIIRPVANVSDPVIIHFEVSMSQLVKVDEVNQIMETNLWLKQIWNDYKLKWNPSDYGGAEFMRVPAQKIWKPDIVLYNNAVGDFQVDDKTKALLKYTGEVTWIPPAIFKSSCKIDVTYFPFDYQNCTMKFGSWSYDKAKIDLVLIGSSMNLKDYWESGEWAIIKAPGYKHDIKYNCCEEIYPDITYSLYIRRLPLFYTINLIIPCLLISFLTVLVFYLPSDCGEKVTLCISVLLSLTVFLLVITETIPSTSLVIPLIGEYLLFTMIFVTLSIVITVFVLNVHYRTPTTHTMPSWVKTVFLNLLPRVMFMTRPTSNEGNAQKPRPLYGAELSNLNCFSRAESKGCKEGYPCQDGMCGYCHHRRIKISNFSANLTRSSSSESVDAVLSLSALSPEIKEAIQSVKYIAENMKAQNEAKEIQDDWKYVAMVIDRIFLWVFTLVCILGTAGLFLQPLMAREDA
Chain of Histamine H3 receptor (Q9Y5N1 whole entry): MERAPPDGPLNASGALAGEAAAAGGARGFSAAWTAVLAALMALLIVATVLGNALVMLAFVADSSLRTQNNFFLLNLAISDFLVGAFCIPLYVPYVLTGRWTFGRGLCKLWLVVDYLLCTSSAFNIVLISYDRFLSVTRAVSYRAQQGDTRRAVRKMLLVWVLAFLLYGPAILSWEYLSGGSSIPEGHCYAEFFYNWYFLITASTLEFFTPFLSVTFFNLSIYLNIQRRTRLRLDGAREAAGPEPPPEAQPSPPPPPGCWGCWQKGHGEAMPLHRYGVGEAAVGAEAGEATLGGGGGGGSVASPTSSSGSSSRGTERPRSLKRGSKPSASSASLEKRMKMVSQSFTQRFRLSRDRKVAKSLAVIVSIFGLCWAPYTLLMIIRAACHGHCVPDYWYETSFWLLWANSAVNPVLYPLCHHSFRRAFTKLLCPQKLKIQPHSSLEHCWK
Chain of Calcium-activated potassium channel subunit beta-1 (Q16558 whole entry): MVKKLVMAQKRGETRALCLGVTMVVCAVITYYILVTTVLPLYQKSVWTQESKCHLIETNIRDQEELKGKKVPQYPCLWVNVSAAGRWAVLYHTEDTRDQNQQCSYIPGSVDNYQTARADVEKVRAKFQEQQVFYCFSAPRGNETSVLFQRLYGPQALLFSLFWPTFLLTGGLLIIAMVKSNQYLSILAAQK
Chain of Leukotriene B4 receptor 2 (Q9NPC1 whole entry): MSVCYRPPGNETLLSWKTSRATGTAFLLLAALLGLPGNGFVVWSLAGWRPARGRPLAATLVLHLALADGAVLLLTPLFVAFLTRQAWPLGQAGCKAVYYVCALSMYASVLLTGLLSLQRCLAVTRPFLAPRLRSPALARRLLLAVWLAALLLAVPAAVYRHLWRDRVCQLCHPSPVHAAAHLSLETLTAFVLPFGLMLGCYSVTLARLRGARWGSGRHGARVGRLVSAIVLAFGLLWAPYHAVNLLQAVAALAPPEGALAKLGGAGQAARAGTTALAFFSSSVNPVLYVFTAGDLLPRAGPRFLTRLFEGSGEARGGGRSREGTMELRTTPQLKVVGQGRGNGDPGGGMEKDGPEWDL
Chain of Substance-K receptor (P21452 whole entry): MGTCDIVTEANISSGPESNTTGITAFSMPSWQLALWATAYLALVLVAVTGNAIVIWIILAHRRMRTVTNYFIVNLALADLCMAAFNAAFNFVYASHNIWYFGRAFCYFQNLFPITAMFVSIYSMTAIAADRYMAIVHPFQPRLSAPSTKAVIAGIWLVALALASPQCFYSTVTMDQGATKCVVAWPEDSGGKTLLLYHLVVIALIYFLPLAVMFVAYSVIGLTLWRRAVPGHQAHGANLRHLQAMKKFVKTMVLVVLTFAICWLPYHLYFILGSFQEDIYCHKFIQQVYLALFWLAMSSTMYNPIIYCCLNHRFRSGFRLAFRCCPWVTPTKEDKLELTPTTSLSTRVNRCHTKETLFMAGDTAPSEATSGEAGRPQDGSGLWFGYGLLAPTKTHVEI
Chain of Adenosine receptor A2a (P29274 whole entry): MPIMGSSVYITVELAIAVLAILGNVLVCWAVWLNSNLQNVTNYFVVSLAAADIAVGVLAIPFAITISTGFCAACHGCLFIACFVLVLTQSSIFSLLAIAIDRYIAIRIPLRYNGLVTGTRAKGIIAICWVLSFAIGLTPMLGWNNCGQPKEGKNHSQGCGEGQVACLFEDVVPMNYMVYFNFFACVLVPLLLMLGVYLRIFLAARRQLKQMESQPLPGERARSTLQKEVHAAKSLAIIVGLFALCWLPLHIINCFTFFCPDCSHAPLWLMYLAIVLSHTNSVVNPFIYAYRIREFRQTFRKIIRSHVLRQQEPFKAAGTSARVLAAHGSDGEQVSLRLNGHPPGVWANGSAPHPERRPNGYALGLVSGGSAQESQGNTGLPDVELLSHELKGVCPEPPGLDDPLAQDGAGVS
Chain of P2X purinoceptor 1 (P51575 whole entry): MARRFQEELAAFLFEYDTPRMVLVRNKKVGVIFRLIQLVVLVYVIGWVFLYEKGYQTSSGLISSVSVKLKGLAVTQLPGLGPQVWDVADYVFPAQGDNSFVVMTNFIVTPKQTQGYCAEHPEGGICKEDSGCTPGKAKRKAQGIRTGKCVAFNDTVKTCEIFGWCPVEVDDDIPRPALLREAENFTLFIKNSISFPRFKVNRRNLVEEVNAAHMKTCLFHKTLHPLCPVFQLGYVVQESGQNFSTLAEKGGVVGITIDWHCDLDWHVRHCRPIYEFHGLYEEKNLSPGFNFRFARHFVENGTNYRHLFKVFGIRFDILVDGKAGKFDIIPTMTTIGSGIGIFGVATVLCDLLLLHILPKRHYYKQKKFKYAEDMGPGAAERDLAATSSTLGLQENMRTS
Chain of Type-1 angiotensin II receptor (P30556 whole entry): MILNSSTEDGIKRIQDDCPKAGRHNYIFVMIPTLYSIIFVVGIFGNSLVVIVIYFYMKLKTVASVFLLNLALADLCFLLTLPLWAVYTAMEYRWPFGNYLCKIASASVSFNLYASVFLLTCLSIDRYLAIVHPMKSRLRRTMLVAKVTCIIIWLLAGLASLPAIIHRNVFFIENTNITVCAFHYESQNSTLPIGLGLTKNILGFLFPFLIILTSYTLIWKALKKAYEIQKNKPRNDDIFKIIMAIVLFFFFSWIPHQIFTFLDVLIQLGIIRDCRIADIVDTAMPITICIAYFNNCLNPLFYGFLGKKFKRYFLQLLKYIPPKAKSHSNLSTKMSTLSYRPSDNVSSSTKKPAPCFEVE
Chain of Vasopressin V2 receptor (P30518 whole entry): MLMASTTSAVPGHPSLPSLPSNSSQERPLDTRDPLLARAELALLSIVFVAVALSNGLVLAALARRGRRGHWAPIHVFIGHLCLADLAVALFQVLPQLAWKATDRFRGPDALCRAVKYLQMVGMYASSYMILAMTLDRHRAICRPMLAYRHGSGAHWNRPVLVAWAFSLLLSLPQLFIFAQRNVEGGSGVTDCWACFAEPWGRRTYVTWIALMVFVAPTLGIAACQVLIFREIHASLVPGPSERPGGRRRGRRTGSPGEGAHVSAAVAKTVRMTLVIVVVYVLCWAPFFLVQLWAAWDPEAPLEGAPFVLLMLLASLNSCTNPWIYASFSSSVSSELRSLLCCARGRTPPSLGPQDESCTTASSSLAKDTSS
Chain of D(1A) dopamine receptor (P21728 whole entry): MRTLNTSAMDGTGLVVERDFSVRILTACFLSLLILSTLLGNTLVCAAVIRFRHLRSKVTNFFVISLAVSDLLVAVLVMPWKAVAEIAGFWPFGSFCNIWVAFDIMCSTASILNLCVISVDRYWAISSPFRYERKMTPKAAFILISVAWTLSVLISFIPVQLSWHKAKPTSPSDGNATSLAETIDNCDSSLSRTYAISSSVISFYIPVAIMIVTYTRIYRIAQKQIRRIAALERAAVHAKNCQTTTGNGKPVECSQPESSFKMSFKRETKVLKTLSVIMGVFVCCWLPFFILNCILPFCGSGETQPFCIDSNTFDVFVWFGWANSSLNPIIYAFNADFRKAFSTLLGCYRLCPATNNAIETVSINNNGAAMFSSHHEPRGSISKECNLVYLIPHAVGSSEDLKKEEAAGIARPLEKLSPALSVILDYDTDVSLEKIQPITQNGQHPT
Chain of AP-4 complex subunit sigma-1 (Q9Y587 whole entry, one chain of several): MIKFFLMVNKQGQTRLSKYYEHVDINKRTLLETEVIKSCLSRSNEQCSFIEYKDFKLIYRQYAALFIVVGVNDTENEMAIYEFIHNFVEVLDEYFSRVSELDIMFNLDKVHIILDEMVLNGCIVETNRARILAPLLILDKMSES
Chain of Histamine H2 receptor (P25021 whole entry): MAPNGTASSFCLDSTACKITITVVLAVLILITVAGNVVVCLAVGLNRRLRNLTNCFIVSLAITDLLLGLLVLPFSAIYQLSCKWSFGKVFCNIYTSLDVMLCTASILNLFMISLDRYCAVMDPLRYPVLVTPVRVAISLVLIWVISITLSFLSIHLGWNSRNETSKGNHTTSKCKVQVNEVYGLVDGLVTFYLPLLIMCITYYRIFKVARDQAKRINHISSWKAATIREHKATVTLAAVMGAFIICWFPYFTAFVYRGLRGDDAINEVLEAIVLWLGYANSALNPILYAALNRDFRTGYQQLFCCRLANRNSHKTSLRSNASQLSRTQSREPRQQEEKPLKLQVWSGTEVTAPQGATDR
Chain of VIP peptides (P01282 125-152 limits assumed): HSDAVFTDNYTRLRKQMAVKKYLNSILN
Chain of Galanin peptides (P22466 33-62 limits assumed): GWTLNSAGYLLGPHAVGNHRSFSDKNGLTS

Cc1ccc(Cn2nc(C(=O)NC3C(C)(C)C4CC[C@@]3(C)C4)cc2-c2ccc(Cl)c(C)c2)cc1 (stereo not given in full) [N-(1,3,3-trimethylbicyclo(2.2.1)heptan-2-yl)-5-(4-chloro-3-methylphenyl)-1-(4-methylbenzyl)pyrazole-3-carboxamide]
> 10 µM: [1] | [2] | [3] | Adenosine receptor A1 | [4] | Histamine H3 receptor | [5] | Histamine H1 receptor | Substance-K receptor | Galanin peptides | Histamine H2 receptor | [6] | [7] | [8] | Vasopressin V1b receptor | [9] | P2Y purinoceptor 1 | [10] | Neurotensin/neuromedin N | B2 bradykinin receptor | P2X purinoceptor 1 | [11] | [12] | Adenosine receptor A2a | [13] | VIP peptides | [14] | [15] | [16] | Substance-P receptor | Vasopressin V2 receptor | [17] | D(1A) dopamine receptor | [18] | Thromboxane A2 receptor | [19] | [20] | [21] | [22] | [23]
